The numbers were not newly measured in patent US8796300B2, “Therapeutic compounds” (Rutgers, the State University of New Jersey, priority 2009, dated 2014), which cites them from elsewhere.

One may read the GI50 as the concentration at which growth is held to half of that of the control.

The series concerns HBC-4, BSY-1, HBC-5, MCF-7, and MDA-MB-231. Conditions: range over HBC-4, BSY-1, HBC-5, MCF-7, MDA-MB-231; read-out: GI50 against human breast cancer cell lines; cited from earlier work.

Turning to `CC[C@H](C)[C@@H]1NC(=O)c2nc(oc2-c2ccccc2)-c2csc(n2)-c2coc(n2)-c2coc(n2)-c2coc(n2)CNC(=O)[C@@H](C(C)C)NC1=O` [YM-216391], the GI50 is 15 to 33 nM.
